Laboratory results as given in ChEMBL document CHEMBL1127805 (J Med Chem, 1994).
pEC50, pIC50, pKi: −log10 of the molar value.

Key:
[1] = target: Glutamate NMDA receptor; assay: Compound was evaluated for in vitro inhibition of [3H]MK-801 at NMDA receptor; type: protein-complex assay
[2] = target: Glutamate NMDA receptor; assay: In vitro inhibition of [3H]glycine at NMDA receptor; type: protein-complex assay
[3] = system: Mus musculus; assay: Compound was evaluated for passive avoidance in vivo through intraperitoneal route; type: functional; conditions: ip
[4] = system: Mus musculus; assay: Compound was evaluated for elevation of cGMP in vivo through subcutaneous route; type: functional; conditions: sc
[5] = target: T1, Glutamate receptor ionotropic, NMDA 1 (Rattus norvegicus, UniProt P35439); assay: Compound was evaluated for in vitro inhibition of cortical neuron at NMDA receptor
[6] = system: Mus musculus; assay: Antagonist activity in plus-maze in vivo through intraperitoneal route; type: functional; conditions: ip
[7] = system: Mus musculus; assay: In vivo antagonist activity against seizures elicited by NMDA in mice administered intraperitoneally; type: functional; conditions: ip
[8] = system: Mus musculus; assay: Antagonist activity in forced swim model, in vivo through intraperitoneal route; type: functional; conditions: ip
[9] = system: Mus musculus; assay: In vivo antagonist activity against seizures elicited by audiogenic administered intra peritoneally in mice; type: functional
[10] = system: Mus musculus; assay: Compound was evaluated for audiogenic seizure in vivo through intra peritoneal route; type: functional
[11] = system: Gerbillinae; assay: Compound was evaluated for neuroprotection, in gerbil seizure model in vivo through intraperitoneal route; type: functional
[12] = system: Mus musculus; assay: In vivo antagonist activity against seizures elicited by audiogenic, administered intra peritoneally in mice; type: functional
[13] = system: Mus musculus; assay: In vivo antagonist activity against seizures elicited by audiogenic, administered perorally in mice; type: functional; conditions: po
[14] = Compound was evaluated for harmaline-induced cGMP seizure in vivo through ip route; type: functional
[15] = target: T1, Glutamate receptor ionotropic, NMDA 1; assay: Compound was evaluated for in vitro inhibition of cortical slice at NMDA receptor
[16] = system: Rattus norvegicus; assay: Antagonist activity for neuroprotection, in rat MCAO in vivo through intravenous bolus+infusion route
[17] = system: Mus musculus; assay: Antagonist activity in PTZ seizure model in vivo through intravenous route; type: functional
[18] = system: Mus musculus; assay: In vivo antagonist activity against seizures elicited by NMDLA in mice administered intravenously; type: functional; conditions: iv
[19] = system: Mus musculus; assay: Antagonist activity in electroshock model in vivo through intravenous route; type: functional
[20] = system: Mus musculus; assay: In vivo antagonist activity against seizures elicited by NMDA in mice administered perorally; type: functional; conditions: po
[21] = target: T1, Glutamate receptor ionotropic, NMDA 1; assay: Compound was evaluated for in vitro inhibition of cGMP cerebellar slice at NMDA receptor.
[22] = system: Mus musculus; assay: In vivo antagonist activity against seizures elicited by audiogenic administered icv in mice; type: functional
[23] = system: Mus musculus; assay: Antagonist activity in audiogenic seizure model in vivo through icv route; type: functional
[24] = system: Mus musculus; assay: Separation-induced vocalization in vivo through ip route; type: functional
[25] = target: Glutamate NMDA receptor; assay: Compound was evaluated for in vitro inhibition of [3H]TCP at NMDA receptor; type: protein-complex assay
[26] = system: Rattus norvegicus; assay: Compound was evaluated for D-Ser-induced cGMP in vivo through ip route; type: functional
[27] = target: Glutamate NMDA receptor; assay: Compound was evaluated for in vitro inhibition of [3H]-MK-801 at NMDA receptor.; type: protein-complex assay
[28] = system: Mus musculus; assay: Antagonist activity in electroshock in vivo through intravenous route; type: functional
[29] = system: Rattus norvegicus; assay: Compound was evaluated for neuroprotection, rat MCAO in vivo through iv route; type: functional
[30] = target: Glutamate [NMDA] receptor; assay: Compound was evaluated for in vitro inhibition of myenteric plexus, guinea pig at NMDA receptor; type: protein-complex assay, Cavia porcellus
[31] = target: T1, Glutamate receptor ionotropic, NMDA 1; assay: Compound was evaluated for in vitro inhibition of oocytes at NMDA receptor.; type: cell-based, frog; conditions: oocyte
[32] = target: T1, Glutamate receptor ionotropic, NMDA 1; assay: Compound was evaluated for in vitro inhibition of spinal cord at NMDA receptor.
[33] = system: Mus musculus; assay: Antagonist activity in PCP hyperactivity seizure model in vivo through subcutaneous route; type: functional; conditions: sc
[34] = system: Mus musculus; assay: Antagonist activity in amphetamine hyperactivity seizure model in vivo through intraperitoneal route; type: functional; conditions: ip
[35] = system: Mus musculus; assay: In vivo antagonist activity against seizures elicited by NMDLA in mice administered intraperitoneally; type: functional; conditions: ip
[36] = target: T2, Glutamate receptor ionotropic, NMDA 2C (Rattus norvegicus, UniProt Q00961); assay: Compound was evaluated for in vitro inhibition of [3H]-GABA release at NMDA receptor.
T2 sequence (Q00961 whole entry): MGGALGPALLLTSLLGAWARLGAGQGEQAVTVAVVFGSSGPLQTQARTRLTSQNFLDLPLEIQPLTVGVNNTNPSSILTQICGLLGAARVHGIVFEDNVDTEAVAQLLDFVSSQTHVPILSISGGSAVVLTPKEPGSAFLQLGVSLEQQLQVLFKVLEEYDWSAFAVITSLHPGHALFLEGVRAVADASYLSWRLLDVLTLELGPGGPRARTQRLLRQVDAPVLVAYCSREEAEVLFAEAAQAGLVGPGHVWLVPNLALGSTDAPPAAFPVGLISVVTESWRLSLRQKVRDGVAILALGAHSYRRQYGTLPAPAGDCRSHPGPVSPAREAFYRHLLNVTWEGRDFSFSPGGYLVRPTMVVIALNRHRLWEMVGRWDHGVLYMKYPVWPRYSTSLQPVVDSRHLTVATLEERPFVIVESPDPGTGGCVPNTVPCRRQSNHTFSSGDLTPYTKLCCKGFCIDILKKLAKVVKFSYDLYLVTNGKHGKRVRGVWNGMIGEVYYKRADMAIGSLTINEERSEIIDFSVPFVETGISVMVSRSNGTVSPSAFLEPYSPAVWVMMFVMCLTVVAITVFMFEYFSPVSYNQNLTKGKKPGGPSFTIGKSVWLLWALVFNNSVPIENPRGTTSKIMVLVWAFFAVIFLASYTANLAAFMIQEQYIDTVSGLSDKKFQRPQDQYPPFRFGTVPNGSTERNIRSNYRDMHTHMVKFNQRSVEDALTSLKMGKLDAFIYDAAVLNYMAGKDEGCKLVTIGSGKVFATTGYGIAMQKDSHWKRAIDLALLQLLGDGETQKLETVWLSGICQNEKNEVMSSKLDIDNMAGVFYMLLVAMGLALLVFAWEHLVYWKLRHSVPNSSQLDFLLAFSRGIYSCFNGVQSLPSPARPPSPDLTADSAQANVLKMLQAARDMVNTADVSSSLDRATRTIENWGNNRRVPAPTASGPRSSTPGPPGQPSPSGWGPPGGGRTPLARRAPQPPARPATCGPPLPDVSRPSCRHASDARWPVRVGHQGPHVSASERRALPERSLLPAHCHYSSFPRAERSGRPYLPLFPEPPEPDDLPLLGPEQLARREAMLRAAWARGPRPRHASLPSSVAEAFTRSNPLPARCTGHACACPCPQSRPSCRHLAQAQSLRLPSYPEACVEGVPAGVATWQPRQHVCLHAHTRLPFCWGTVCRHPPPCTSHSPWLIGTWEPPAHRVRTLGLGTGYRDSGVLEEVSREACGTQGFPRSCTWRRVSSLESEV

[37] = target: T1, Glutamate receptor ionotropic, NMDA 1; assay: Compound was evaluated for in vitro inhibition of [3H]L-689,560 at NMDA receptor.
[38] = target: T2, Glutamate receptor ionotropic, NMDA 2C; assay: Compound was evaluated for in vitro inhibition of cortical slice release at NMDA receptor.
[39] = system: Gerbillinae; assay: Compound was evaluated for neuroprotection, gerbil in vivo through ip route; type: functional
[40] = system: Mus musculus; assay: Compound was evaluated for nociception in electroshock mice model in vivo through ip route; type: functional

SMILES: N[C@H](/C=C/CCO)C(=O)O
- pEC50 [1]: 6.48
- pIC50 [2]: 6.62

SMILES: O=C(O)C1Nc2cc(Cl)cc(Cl)c2S(=O)(=O)N1Cc1cccc(Br)c1 (configuration not stated)
- pIC50 [2]: 8.10

SMILES: N[C@@H]1CONC1=O [CYCLOSERINE]
- ED50 [3]: 3 mg/kg
- ED50 [4]: 1.25 mg/kg

SMILES: O=C1C2CC(CCN2)N1O (configuration not stated)
- pKi [5]: 5.46
- pIC50 [2]: 4.72

SMILES: O=C(C[C@@H]1CCc2cc(Br)cc3[nH]c(=O)c(=O)n1c23)Nc1ccccc1
- pIC50 [2]: 8.59

SMILES: O=C(O)Cn1c(=O)c(=O)[nH]c2cc(Cl)c(Cl)cc21
- pIC50 [2]: 6.96

SMILES: COC(=O)C1(N)CC1
- ED50 [6]: 200 mg/kg
- ED50 [7]: 46 mg/kg
- pIC50 [2]: < 4.40
- ED50 [8]: 100 mg/kg

SMILES: O=C(Nc1ccccc1)N[C@H]1C[C@H](C(=O)O)Nc2cc(Cl)cc(Cl)c21
- ED50 [9]: > 100 mg/kg
- pIC50 [2]: 8.11

SMILES: CC(CN(C)C)OC(=O)c1cc(O)c2c(Cl)cc(Cl)cc2n1 (configuration not stated)
- ED50 [10]: 62 mg/kg

SMILES: O=c1[nH][nH]c(=O)c2c(O)c3c(Cl)cc(Cl)cc3nc12
- MED50 [11]: 10 mg/kg
- pIC50 [2]: 7.00

SMILES: O=C(c1c(O)nc2cc(Cl)ccc2c1O)C1CC1
- ED50 [9]: 4.1 mg/kg

SMILES: O=c1[nH]c2cc(Cl)ccc2c(O)c1-c1cccc(Oc2ccccc2)c1
- ED50 [12]: 0.9 mg/kg
- ED50 [13]: 0.9 mg/kg

SMILES: CCOC(=O)Cc1c(C(=O)O)[nH]c2cc(Cl)ccc12
- pIC50 [2]: 6.20
- MED50 [14]: 100 mg/kg

SMILES: O=c1cc(O)c2c(Cl)cc(Cl)cc2[nH]c1=O
- pIC50 [2]: 7.51

SMILES: N[C@H]1C(=O)N(O)C[C@H]1O
- pKi [5]: 6.12
- pIC50 [2]: 5.89

SMILES: N[C@@H](/C=C/CCO)C(=O)O
- pEC50 [1]: 6.03
- pIC50 [2]: 6.12

SMILES: O=C(O)c1nc2c(Cl)cc(Cl)cc2[nH]1
- pIC50 [2]: 6.10

SMILES: O=C(O)CSc1c(C(=O)O)[nH]c2cc(Cl)cc(Cl)c12
- pEC50 [15]: 3.85

SMILES: C[C@@H]1CN(O)C(=O)[C@@H]1N
- pKi [5]: 6.19
- ED50 [16]: 13.5 mg/kg
- ED50 [17]: 13 mg/kg
- ED50 [18]: 20 mg/kg
- ED50 [9]: 5.1 mg/kg
- pIC50 [2]: 5.85
- ED50 [19]: 26 mg/kg
- ED50 [20]: 44 mg/kg

SMILES: O=C(O)CCc1c(C(=O)O)[nH]c2cc(Cl)cc(Cl)c12
- pIC50 [21]: 5.57
- ED50 [9]: 100 mg/kg
- ED50 [22]: 0.09 µg

SMILES: N#Cc1cc2c(cc1[N+](=O)[O-])=NC(=O)C(=O)N=2
- pIC50 [2]: 5.32

SMILES: O=C(O)c1cc(O)c2c(Cl)cc(Cl)cc2n1
- ED50 [23]: 7.5 nM
- ED50 [24]: 67 mg/kg
- ED50 [9]: > 250 mg/kg

SMILES: NCC(=O)Nn1ccc2ccccc21
- pEC50 [25]: 5.44
- pIC50 [25]: 3.11
- pIC50 [2]: 4.44

SMILES: O=C(O)c1cc(=O)c2ccccc2[nH]1 [TRANSTORINE]
- ED50 [23]: 20 nM
- ED50 [9]: > 250 mg/kg

SMILES: NCc1ccc(CC(=O)N[C@H]2C[C@H](C(=O)O)Nc3cc(Cl)cc(Cl)c32)cc1
- ED50 [9]: 39 mg/kg
- ED50 [22]: 3.5

SMILES: O=C(O)c1nc2cc(Cl)c(Cl)cc2nc1O [6,7-DICHLORO-3-HYDROXY-2-QUINOXALINECARBOXYLIC ACID]
- pIC50 [2]: 6.34

SMILES: O=C(O)Cc1c(C(=O)O)[nH]c2cc(Cl)ccc12
- ED50 [26]: 5.4 µg
- ED50 ([26]; Rattus norvegicus, ip, read-out: ED50): > 50 mg/kg
- pIC50 [2]: 6.02

SMILES: NC1(C(=O)O)CC1 [1-Aminocyclopropane carboxylic acid]
- pEC50 [27]: 6.85
- pIC50 [2]: 7.40

SMILES: COC(=O)[C@H]1C[C@H](NC(=O)Cc2ccc(CN)cc2)c2c(Cl)cc(Cl)cc2N1
- ED50 [9]: 32 mg/kg

SMILES: O=C(NS(=O)(=O)c1ccccc1)c1nc2cc(Cl)c(Cl)cc2[nH]c1=O
- pIC50 [15]: 4.96
- ED50 [28]: > 100 mg/kg
- pIC50 [2]: 6.92

SMILES: O=C(O)c1cc(S)c2ccc(Cl)cc2n1
- ED50 [29]: 20 mg/kg
- pIC50 [30]: 5.30
- pIC50 [2]: 6.40

SMILES: NC1(C(=O)O)CCC1 [1-AMINOCYCLOBUTANE CARBOXYLIC ACID]
- pIC50 [31]: 4.73
- pIC50 [2]: 4.72

SMILES: CN(C(=O)c1ccccc1)c1c(C(=O)O)[nH]c2cc(Cl)ccc12
- pIC50 [2]: 6.96

SMILES: Oc1ccc(-c2c(O)nc3cc(Cl)cc(Cl)c3c2O)cc1
- pIC50 [32]: 5.68
- pIC50 [2]: 7.96

SMILES: NC(Cc1ccc(CC(=O)N[C@H]2C[C@H](C(=O)O)Nc3cc(Cl)cc(Cl)c32)cc1)C(=O)O (some centres not stated)
- ED50 [9]: 29 mg/kg
- ED50 [22]: 0.5

SMILES: O=c1[nH]c2cc(Cl)ccc2c(O)c1-c1cccc(Oc2ccsc2)c1
- ED50 [12]: 0.8 mg/kg
- ED50 [13]: 0.9 mg/kg
- pIC50 [2]: 8.85

SMILES: N[C@@H]1CCN(O)C1=O
- ED50 [33]: 30 mg/kg
- pKi [5]: 5.60
- ED50 [12]: 53 mg/kg
- ED50 [34]: 30 mg/kg
- ED50 [35]: 890 mg/kg
- pIC50 [2]: 4.90

SMILES: Oc1nc2cc(Cl)c(Cl)cc2n2ccnc12
- pIC50 [2]: 5.22

SMILES: O=[N+]([O-])c1cc([N+](=O)[O-])c2nc(O)c(O)nc2c1
- pEC50 [36]: 6.40
- pIC50 [37]: 6.77
- pIC50 [2]: 6.00
- pIC50 [38]: 6.40

SMILES: O=c1[nH]c2cc([N+](=O)[O-])c([N+](=O)[O-])cc2[nH]c1=O [DNQX]
- pIC50 [2]: 5.89

SMILES: NCc1ccc(NC(=O)CCc2c(C(=O)O)[nH]c3cc(Cl)cc(Cl)c23)cc1
- pIC50 [2]: 7.57

SMILES: O=c1[nH][nH]c(=O)c2c1[nH]c1cc(Cl)cc(Cl)c12
- pIC50 [2]: 6.39
- MED50 [39]: 10 mg/kg

SMILES: O=c1[nH]c2cc(Cl)c(Cl)c([N+](=O)[O-])c2[nH]c1=O [LICOSTINEL]
- ED50 [40]: 5 mg/kg
